Assay results reported in patent publication US20090123581A1, “COLLAGEN CROSS-LINKING AGENTS ON DENTAL RESTORATIVE TREATMENT AND PREVENTIVE DENTISTRY” (THE BOARD OF TRUSTEES OF THE UNIVERSITY OF ILLINOIS, priority 2006, published 2009).

Key:
[1] = Ultimate tensile strength (UTS) of demineralized dentin after cross-linker treatment (Example 1); design: species or system human; details: for Ultimate tensile strength, mean: pH 7.4
Excerpt: (§1) Fixation Processes: Ten sound freshly extracted human molars were used in this study. The teeth were thawed, cleaned of adhering soft tissues, and the occlusal surfaces were ground flat with #320 grit Silicon Carbide paper under running water to remove part of the enamel. Flattening of the occlusal surface by removal of the cusps enables accurate sectioning of samples in beam shape. Teeth were sectioned into 0.5±0.1 by 0.5±0.1 mm thick beams (n=20 beams per tooth) with a slow speed diamond wafering blade (Buehler-Series 15LC Diamond, Lake Bluff, Ill., USA) under constant water coolant (FIG. 1A).
(§2) The slabs were randomly divided into two groups: 1) undemineralized dentin and 2) demineralized dentin (FIG. 1A). In Group 2, dentin beams were immersed in 10% phosphoric acid solution (Fisher Scientific, New Jersey, N.J.) for a period of 5 hours. X-rays were taken from the specimens to verify complete tissue demineralization. Specimens were thoroughly rinsed with distilled water for 10 minutes to remove any residue of the phosphoric acid.
(§3) Specimens from groups 1 and 2 were subdivided according to the dentin treatment (FIG. 1B). In Treatment A, specimens were immersed in PBS solution (pH: 7.4) as a control. In Treatment B, specimens were immersed in 0.5% Proanthocyanidin (MegaNatural—Polyphenolics Ind.) PBS solution (PA) at a pH of 7.4. In Treatment C, specimens were immersed in 0.625% Genipin (Wako Pure Chemical Ind.) PBS solution (GE) at a pH of 7.4. In Treatment D, specimens were immersed in 5% glutaraldehyde solution (GD) (Fisher Scientific, New Jersey, N.J.) at a pH of 7.4. Specimens were kept in their respective solutions for 4 and 40 hours at room temperature. After the incubation periods, specimens were thoroughly rinsed with distilled and deionized water to remove any remains of cross-linking agents and buffer.
(§4) UTS testing: For UTS evaluation, the specimens were glued with a cyanoacrylate adhesive (Zapit—Dental Ventures of America Inc., Corona, Calif.) to a Ciucchi's jig, which was mounted on a universal testing machine (EZ Test, Shimazu Co., Kyoto, Japan) and subjected to microtensile testing at a crosshead speed of 1 mm/min (FIG. 1C). Means and standard deviations were calculated and expressed in microtensile bond strengths (MPa). Statistical analysis was performed using a two-way ANOVA and Fisher's PLSD tests (p<0.05).

[2] = Ultimate tensile strength (UTS) of undemineralized (mineralized) dentin after cross-linker treatment (Example 1); design: species or system human; details: 0.625% GE or 5% GD; for Ultimate tensile strength, mean: pH 7.4
Excerpt: as §1, §2, §3, §4

COC(=O)C1=CO[C@@H](O)[C@@H]2C(CO)=CC[C@H]12 [GE, genipin]
Ultimate tensile strength, mean ([1]; 4 hours in 0.5% PA, 0.625% GE or 5% GD): 11.0 MPa | Ultimate tensile strength, mean ([1]; 40 hours in 0.5% PA, 0.625% GE or 5% GD): 18.2 MPa | increase in the UTS values ([1]; 40 hours treatment, versus control): approximately 80% | Ultimate tensile strength, pooled data ([1]; pooled over 4 and 40 hours, 0.5% PA, 0.625% GE or 5% GD): 14.6 B MPa | UTS values compared to the control group (statistics) ([1]; two-way ANOVA, Fisher's PLSD): statistically significant increase | Ultimate tensile strength, mean ([2]; 4 hours in 0.5% PA): 84.2 MPa | Ultimate tensile strength, mean ([2]; 40 hours in 0.5% PA): 94.2 MPa | Ultimate tensile strength, pooled data ([2]; pooled over 4 and 40 hours, 0.5% PA): 89.2 A MPa
